We go through seven compounds from the NIST ThermoML archive (doi:10.1016/j.jct.2004.09.014).

Numbers after ± are expanded uncertainties.

For data set [1] the following is noted: 101.3 kPa, Liquid.
The nature of data set [2]: xn = mol fraction of the nth substance listed. The settings on record: 101.3 kPa, Liquid.

As to `COCCOCCOCCO` [2-[2-(2-methoxyethoxy)ethoxy]ethanol], the mass density was determined as 1047.29 ± 1.9 kg/m3 in data set [1] (293.15 K); 1042.97 ± 1.9 kg/m3 in data set [1] (298.15 K); 1038.65 ± 1.9 kg/m3 in data set [1] (303.15 K); 1034.33 ± 1.9 kg/m3 in data set [1] (308.15 K); 1030.01 ± 2 kg/m3 in data set [1] (313.15 K).
For `CCOC(C)(C)C` [2-ethoxy-2-methylpropane] + COCCOCCO, the mass density in data set [2] (293.15 K, x1 = 1) is on record as 741.11 ± 0.61 kg/m3; in data set [2] (298.15 K, x1 = 1), 735.59 ± 0.65 kg/m3; in data set [2] (303.15 K, x1 = 1), 730.85 ± 0.69 kg/m3; in data set [2] (308.15 K, x1 = 1) it was 725.98 ± 0.73 kg/m3; in data set [2] (313.15 K, x1 = 1), 720.69 ± 0.77 kg/m3.
Consider `CCOC(C)(C)C` [2-ethoxy-2-methylpropane], for which the mass density in data set [1] (293.15 K) turned out to be 741.11 ± 0.61 kg/m3; in data set [1] (298.15 K), 735.59 ± 0.65 kg/m3; in data set [1] (303.15 K), 730.85 ± 0.69 kg/m3; in data set [1] (308.15 K) it was 725.98 ± 0.73 kg/m3; in data set [1] (313.15 K), 720.69 ± 0.77 kg/m3.
Taken in the same sequence, the figures for `COCCO` [2-methoxyethan-1-ol] were 964.88 ± 1 kg/m3, 960.29 ± 1.1 kg/m3, 955.76 ± 1.1 kg/m3, 951.1 ± 1.1 kg/m3 and 946.54 ± 1.1 kg/m3.
With `COCCOCCO` [2-(2-methoxyethoxy)ethanol], the mass density in data set [1] (293.15 K) came to 1020.8 ± 1.4 kg/m3; in data set [1] (298.15 K), 1016.4 ± 1.4 kg/m3; in data set [1] (303.15 K) it was 1011.83 ± 1.5 kg/m3; in data set [1] (308.15 K), 1007.69 ± 1.5 kg/m3; in data set [1] (313.15 K), 1003.22 ± 1.5 kg/m3.
As for `COCCO` [2-methoxyethan-1-ol] + CCOC(C)(C)C, the mass density worked out at 964.88 ± 1 kg/m3 in data set [2] (293.15 K, x2 = 0); 960.29 ± 1.1 kg/m3 in data set [2] (298.15 K, x2 = 0); 955.76 ± 1.1 kg/m3 in data set [2] (303.15 K, x2 = 0); 951.1 ± 1.1 kg/m3 in data set [2] (308.15 K, x2 = 0); 946.54 ± 1.1 kg/m3 in data set [2] (313.15 K, x2 = 0).
As to `CCOC(C)(C)C` [2-ethoxy-2-methylpropane] + COCCOCCOCCO, the mass density in data set [2] (293.15 K, x1 = 1) was 741.11 ± 0.61 kg/m3; in data set [2] (298.15 K, x1 = 1) it was 735.59 ± 0.65 kg/m3; in data set [2] (303.15 K, x1 = 1), 730.85 ± 0.69 kg/m3; in data set [2] (308.15 K, x1 = 1) it was 725.98 ± 0.73 kg/m3; in data set [2] (313.15 K, x1 = 1) it was 720.69 ± 0.77 kg/m3.
